Laboratory results reported in ChEMBL document CHEMBL1649251, “Antischistosomal activity of hexadecyloxypropyl cyclic 9-(S)-[3-hydroxy-2-(phosphonomethoxy)propyl]adenine and other alkoxyalkyl esters of acyclic nucleoside phosphonates assessed by schistosome worm killing in vitro” (Antimicrob Agents Chemother, 2009).

Experiments:
Schistosoma mansoni [1] = test: Antischistosomal activity against Schistosoma mansoni isolated from infected Syrian golden hamsters assessed as worm mortality at 100 uM treated for overnight followed by drug washout measured on day 5 relative to control; format: functional
Schistosoma mansoni [2] = test: Antischistosomal activity against Schistosoma mansoni isolated from infected Syrian golden hamsters assessed as worm mortality at 75 uM treated for overnight followed by drug washout measured on day 5 relative to control; format: functional
Schistosoma mansoni [3] = test: Antischistosomal activity against Schistosoma mansoni isolated from infected Syrian golden hamsters assessed as worm mortality at 50 uM treated for overnight followed by drug washout measured on day 5 relative to control; format: functional
Schistosoma mansoni [4] = test: Antischistosomal activity against Schistosoma mansoni isolated from infected Syrian golden hamsters assessed as worm mortality at 25 uM treated for overnight followed by drug washout measured on day 5 relative to control; format: functional
Schistosoma mansoni [5] = test: Antischistosomal activity against Schistosoma mansoni isolated from infected Syrian golden hamsters assessed as worm mortality at 12.5 uM treated for overnight followed by drug washout measured on day 5 relative to control; format: functional
Schistosoma mansoni [6] = test: Antischistosomal activity against Schistosoma mansoni isolated from infected Syrian golden hamsters assessed as worm mortality at 5 uM treated for overnight followed by drug washout measured on day 5; format: functional
Schistosoma mansoni [7] = test: Antischistosomal activity against Schistosoma mansoni isolated from infected Syrian golden hamsters assessed as worm mortality treated for overnight followed by drug washout measured on day 5; format: functional, organism-based; details: 120 h

Structure (SMILES) | Activity (Schistosoma mansoni [1]) [%] | Activity (Schistosoma mansoni [2]) [%] | Activity (Schistosoma mansoni [3]) [%] | Activity (Schistosoma mansoni [4]) [%] | Activity (Schistosoma mansoni [5]) [%] | Activity (Schistosoma mansoni [6]) [%] | EC50 (Schistosoma mansoni [7]) [µM]
CCCCCCCCCCCCCCCCCCOCCOP(=O)(O)CO[C@H](CO)Cn1cnc2c(N)nc(N)nc21 | 40 | 40 | 33 | 14 | 8 | 7 | > 100
CCCCCCCCCCCCCCCCOCCCOP1(=O)CO[C@@H](Cn2cnc3c(N)ncnc32)CO1 (stereo partly specified) | 93.3 | 84.6 | 78.6 | 69.2 | 53.8 | 50 | 5
CCCCCCCCCCCCCCCCCCOCCOP(=O)(O)CO[C@H](CO)Cn1cnc2c(=O)[nH]c(N)nc21 | 33 | 36 | 20 | 15 | 7 | 13 | > 100
CCCCCCCCCCCCCCCCOCCCOP1(=O)CO[C@@H](Cn2ccc(N)nc2=O)CO1 (stereo partly specified) | 100 | 64 | 67 | 36 | 33 | 13 | 28
Nc1ncnc2c1ncn2C[C@@H](CO)OCP(=O)(O)O | 13 | 12.5 | 7 | 7 | 6.25 | 6.7 | > 100
CCCCCCCCCCCCCCCCOCCCOP(=O)(O)CO[C@H](CO)Cn1cnc2c(N)ncnc21 | 30.8 | 28.6 | 32.3 | 18.8 | 12.5 | 6.25 | > 100
CCCCCCCCCCCCCCCCCCOCCOP(=O)(O)CO[C@H](CO)Cn1cnc2c(N)ncnc21 | 47 | 33 | 40 | 25 | 12.5 | 12.5 | > 100
O=C(C1CCCCC1)N1CC(=O)N2CCc3ccccc3C2C1 (stereo unspecified) [PRAZIQUANTEL] | 100 | 100 | 100 | 100 | 100 | 100 | 0.22
